In PubChem BioAssay (NCI):
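48-hour exposure; five concentrations; linearly interpolated endpoints. At the GI50, growth is halved. The concentration for full growth arrest is given as TGI.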

Legend:
Test in all cases: DTP human tumour cell line panel, 48 h
BT-549 breast = test system: BT-549 breast
CAKI-1 renal = test system: CAKI-1 renal
CCRF-CEM leukemia = test system: CCRF-CEM leukemia
COLO 205 colon = test system: COLO 205 colon
DU-145 prostate = test system: DU-145 prostate
HS 578T breast = test system: HS 578T breast
OVCAR-8 ovarian = test system: OVCAR-8 ovarian
SF-268 CNS = test system: SF-268 CNS
SNB-19 CNS = test system: SNB-19 CNS
SR leukemia = test system: SR leukemia

Structure (SMILES)	GI50 (BT-549 breast)	TGI (BT-549 breast)	GI50 (CAKI-1 renal)	TGI (CAKI-1 renal)	GI50 (CCRF-CEM leukemia)	TGI (CCRF-CEM leukemia)	GI50 (COLO 205 colon)	TGI (COLO 205 colon)	GI50 (DU-145 prostate)	TGI (DU-145 prostate)	GI50 (HS 578T breast)	TGI (HS 578T breast)	GI50 (OVCAR-8 ovarian)	TGI (OVCAR-8 ovarian)	GI50 (SF-268 CNS)	TGI (SF-268 CNS)	GI50 (SNB-19 CNS)	TGI (SNB-19 CNS)	GI50 (SR leukemia)	TGI (SR leukemia)
COc1ccc(-c2c(-c3cc(OC)c4c(c3)OCO4)noc2N)cc1	0.568 µM	38.7 µM	0.0424 µM	57.2 µM	0.0361 µM	24.9 µM	0.0347 µM	0.122 µM	0.041 µM	1.97 µM	0.0302 µM	49.6 µM	0.0654 µM	22.8 µM	0.11 µM	> 91 µM	0.0708 µM	> 100 µM	< 0.0104 µM	> 36.6 µM
C[C@H]1C(Oc2ccc(O)cc2)OC2OC3(C)CCC4[C@H](C)CCC1C24OO3 (some centres undefined)	8.34 µM	23.7 µM	18.5 µM	40.8 µM	8.52 µM	> 100 µM	0.867 µM	13.7 µM	20.1 µM	43.2 µM	11.9 µM	32.7 µM	2.12 µM	25.4 µM	12.9 µM	27.2 µM	17.1 µM	36.5 µM	–	> 100 µM
N[C@@H]1CCCN(c2c(/C=C3\SC(=O)NC3=O)cccc2-c2ccccc2)C1	11.5 µM	24.1 µM	15 µM	31.7 µM	14 µM	38.8 µM	11.6 µM	25.5 µM	13.7 µM	28.1 µM	14 µM	64 µM	14 µM	27.9 µM	16.1 µM	33.2 µM	2.93 µM	13.2 µM	4.64 µM	26.2 µM
O=C(OCc1ccc2c(Cl)cc(Cl)c(O)c2n1)c1cc2ccccc2[nH]1	0.265 µM	0.845 µM	0.435 µM	1.65 µM	0.146 µM	1.93 µM	0.834 µM	2.45 µM	0.916 µM	2.19 µM	1.62 µM	4.48 µM	0.818 µM	3.05 µM	1.5 µM	2.97 µM	1.59 µM	2.99 µM	0.324 µM	1.92 µM
